Measured values taken from US6835734B2, “1,3-dioxolanes with antitussive activity” (Dompé S.p.A., priority 2000, dated 2004).

Key:
[1] = tested on: male Dunkin-Hartley Guinea pigs; assay: capsaicin aerosol-induced cough after intravenous administration; format: in vivo, Guinea pig; conditions: for recorded cough strokes / inhibition of the response to the tussigenic stimulus: 10 mg/kg intravenous, 0.0045% capsaicin aerosol 5 minutes after administration; for recorded cough strokes: during the 4 minute aerosol; for inhibition of the response to the tussigenic stimulus: strokes recorded during 4 minute aerosol
Procedure: The tests were carried out on male Dunkin-Hartley Guinea pigs (4-6 animals for group), which were subjected to aerosol of a 0.0045% (p/v) capsaicin aqueous solution [Lavezzo A., Pulm. Pharmacol., 5, 143-147, 1992; Gallico L. et al, Br. J. Pharmacol., 112, 795-800. 1994] 5 minutes after intravenous administration of 0.5 ml of a (−)-1,2-cyclohexylidene-3-(4-phenyl-piperazin-1-yl)-propane-1,2-diol fumarate solution (DF 1689A, 10 mg/kg) compared with 0.5 ml of a levodropropizine solution, pH 4.5 (10 mg/kg) and with an equal volume of saline solution (control).

[2] = tested on: male Dunkin-Hartley Guinea pigs; assay: cough strokes after aerosol administration of the medicaments; format: in vivo, Guinea pig; conditions: aerosol with 1% (w/v) aqueous solution for 10 minutes, compared with saline aerosol controls

## O=C(O)/C=C/C(=O)O.c1ccc(N2CCN(C[C@H]3COC4(CCCCC4)O3)CC2)cc1 [DF 1689A, S(−)-1,2-cyclohexylidene-3-(4-phenyl-piperazin-1-yl)propane-1,2-diol fumarate]
[1]
  recorded cough strokes: 4.83±0.54
  inhibition of the response to the tussigenic stimulus: 47.3%
[1]; 15 minutes after the intravenous administration
  inhibition on the tussigen stimulus induced by capsaicin aerosol: 34.6%
[1]; 30 minutes after the intravenous administration
  inhibition on the tussigen stimulus induced by capsaicin aerosol: 27.3%
[2]
  inhibitory effect on number of cough strokes: about 35%

## OCC(O)CN1CCN(c2ccccc2)CC1 (single isomer, unassigned; (-)) [levodropropizine, (−) 3-(4-phenyl-piperazin-1-yl)-1,2-propanediol, reference compound]
[1]
  recorded cough strokes: 5.17±0.54
  inhibition of the response to the tussigenic stimulus: 43.6%
[2]
  inhibitory effect on number of cough strokes: about 35%
